This note sets out measurements from US5874583A, “2,3-dihydro-1H-isoindole derivatives” (Hoechst Marion Roussel Inc., priority 1997, dated 1999).

What is called IC50 is the midpoint of a concentration-inhibition curve. The low end stands for greater potency in that assay, the high end for weaker potency in that assay.

Structures can show the parent of a compound that is named as a salt.

The subject of the experiment is serotonin (5-hydroxytryptamine (5HT)) uptake. The experiment is described as follows: [3H]-Serotonin uptake in rat whole brain and hypothalamic synaptosomes. It is filed as biochemical. Conditions: [3H]-5HT 50 nM, 37° C., 5 minutes. The procedure:
[^3 H]-Serotonin Uptake in Rat Whole Brain and Hypothalamic Synaptosomes
This activity is determined in an assay which measures [^3 H]-serotoninuptake in rat whole brain and hypothalamic synaptosomes. The assay described below is used as a biochemical screen for potential antidepressants which block serotonin (5-hydroxytryptamine (5HT)) uptake.
Male CR Wistar rats (100-125 g)
1. Krebs-Henseleit Bicarbonate Buffer, pH 7.4 (KHBB):
The batch is aerated for 60 minutes with 95% 02 /5% CO2, the pH is checked to insure it is at 7.4±0.1, then add bovine serum albumin (Sigma cat# A-7906) 1 mg/ml.
3. Sucrose solution: 0.32M sucrose containing 5 mM HEPES and 0.1 mM EDTA; pH to 7.3 using Tris base.
4. A 0.1 mM stock solution of serotonin creatinine SO4 is made up in 0.01N HCl. This is used to dilute the specific activity of the radiolabeled 5HT.
The final desired concentration of [^3 H]-5HT in the assay is 50 nM. The dilution factor is 0.8. The KHBB is made up to contain 62.5 nM of [^3 H]-5HT.
6. For most assays, a 0.5 mM stock solution of the test compound is made up initially in either 10 μl of glacial acetic acid, 100 μl DMSO or 10 μl of the recrystallization solvent, to which is added approximately 10 ml of distilled water. Compounds are initially screened in duplicate at 3 concentrations (10^-8, 10^-7 and 10^-6 M) made up in water.
The Percoll method for preparing synaptosomes has been modified from Nagy, A., Delgado-Escueta, A. V. J. Neurochem. 43, 1114 (1984) and Dunkley, P. R., Jarvie, R. E., Heath, J. W., Kidd, G. J., Rostas, J. A. P. Brain Research 372, 115 (1986). Male Wistar rats are decapitated and the brain rapidly removed. Whole brain (minus cerebellum) is weighed and homogenized in 15 volumes of ice cold Sucrose solution using a Potter-Elvejhem homogenizer. The following procedures are performed on ice. Homogenization should be done with 4-5 up and down strokes at medium speeds (setting 4.5 to 5) to minimize synaptosome lysis. The homogenate is centrifuged at 1000 g (3000 rpm, Sorvall SS-34 rotor) for 10 minutes at 0°-4° C.
The Percoll gradient tubes are carefully placed into a Beckman SW-28 swinging bucket rotor and spun in a Beckman XL90 ultracentrifuge using the following program: speed, 11,000 rpm (15,000 g) for 30 minutes at 4° C.; slow acceleration and deceleration (acceleration setting 9; deceleration setting 3). Tubes are carefully removed, and the top layer and the top part of the middle (red) layer are discarded using a pasteur pipette. The synaptosomes are located in the white fluffy band at the interface between the 10% and 21% Percoll layers. This is carefully removed, placed in a centrifuge tube, diluted with KHBB and spun at 21,000 g (13,000 rpm, Sorvall SS-34 rotor). The pellet (synaptosomes) is resuspended in KHBB (10 vol per gram original brain wet weight; 1 brain minus cerebellum weighs approximately 1.2 g; 2.5 brains are needed per typical assay).
200 μl of the tissue suspension are added to each of 24 tubes (at a time) containing the 20 μl of vehicle or drug on ice. Three minutes later, 800 μl of KHBB containing [^3 H]-5HT are added, and the tubes are vortexed. The rack containing the 24 tubes is moved from the ice bath to a water bath set at 37° C. The tubes are incubated for 5 minutes under 95% O2 /5% CO2.
As to `CCC1c2ccccc2CN1c1ccncc1` (centres unmarked) [2,3-Dihydro-1-Ethyl-2-(4-Pyridyl)-1H-Isoindole Maleate], half-maximal inhibition (IC50) was put at 1140 nM. This counts as single-digit micromolar.

As for `CC1c2ccccc2CN1c1ccncc1` (centres unmarked) [2,3-Dihydro-1-Methyl-2-(4-Pyridyl)-1H-Isoindole Fumarate], the IC50 worked out at 736 nM.

`CCCC1c2ccccc2CN1c1ccncc1` (centres unmarked) [2,3-Dihydro-1-Propyl-2-(4-Pyridyl)-1H-Isoindole Maleate]: it took 725 nM to reach half-maximal inhibition (IC50).

With `c1ccc2c(c1)CN(c1ccncc1)C2` [2,3-Dihydro-2-(4-Pyridyl)-1H-Isoindole Maleate], the IC50 turned out to be 880 nM. The IC50 values of the last two molecules are within 1.5-fold of each other.

`CC(C)CC1c2ccccc2CN1c1ccncc1` (centres unmarked) [2,3-dihydro-1-(2-methylpropyl)-2-(4-pyridyl)-1H-isoindole maleate] had an IC50 of 849 nM.
